Measurements published in US20240343704A1, “HALO-SUBSTITUTED AMINO PYRIDINE COMPOUNDS AS INHIBITORS OF THE HAEMATOPOIETIC PROGENITOR KINASE 1 (HPK1)” (priority 2021, published 2024).

Each compound was assayed against Lck (h) (Homo sapiens, UniProt P06239) (assay: Lck Human  Kinase Enzymatic Radiometric Assay). Details: ratio of Lck IC50 to HPK1 IC50.
Assay type: biochemical
Method: Lck (h) is incubated with 50 mM Tris pH 7.5, 0.1 mM EGTA, 0.1 mM Na3VO4, 250 uM KVEKIGEGTYGVVYK (Cdc2 peptide), 10 mM MgAcetate and [gamma-33P]-ATP (specific activity and concentration as required). The reaction is initiated by the addition of the Mg/ATP mix. After incubation for 40 minutes at RT, the reaction is stopped by the addition of phosphoric acid to a concentration of 0.5%. 10 uL of the reaction is then spotted onto a P30 filtermat and washed four times for 4 minutes in 0.425% phosphoric acid and once in methanol prior to drying and scintillation counting. For more details on the kinase assay procedures see: Gao, Y. et. al.; Biochem J., 451 (2): 313-328, 2013.

Chain of Lck (h) (P06239 whole entry): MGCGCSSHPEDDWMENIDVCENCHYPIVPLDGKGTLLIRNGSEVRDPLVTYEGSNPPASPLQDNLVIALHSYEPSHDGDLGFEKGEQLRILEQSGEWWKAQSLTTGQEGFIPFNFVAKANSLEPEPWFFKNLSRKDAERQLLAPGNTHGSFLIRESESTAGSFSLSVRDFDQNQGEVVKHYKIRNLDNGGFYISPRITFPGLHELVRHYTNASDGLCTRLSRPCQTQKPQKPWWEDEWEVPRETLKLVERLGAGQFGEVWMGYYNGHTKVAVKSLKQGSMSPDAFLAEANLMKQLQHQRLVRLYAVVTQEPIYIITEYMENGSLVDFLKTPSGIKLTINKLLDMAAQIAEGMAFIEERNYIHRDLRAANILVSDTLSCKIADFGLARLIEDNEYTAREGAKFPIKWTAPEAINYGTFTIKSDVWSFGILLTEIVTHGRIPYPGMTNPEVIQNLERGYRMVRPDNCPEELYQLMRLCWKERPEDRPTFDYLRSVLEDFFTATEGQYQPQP

LcK IC50/HPK IC50 selectivity	SMILES
20	Nc1ncc(-c2ccc(N3CCN4CCCC4C3)cc2)cc1-c1ccc2c(c1)CCNC2=O (stereo not drawn) [reference compound]
0.2	Nc1ncc(-c2cnn(C3CCOCC3)c2)cc1-c1ccc2c(c1)CCNC2=O [reference compound]
323	Nc1nc(F)c(-c2ccc(N3C[C@H]4COC[C@H]4C3)cc2)cc1-c1ccc2c(c1)CCNC2=O
704	Nc1nc(F)c(-c2ccc(C3CCNCC3)cc2)cc1-c1cc2c(cc1F)C(=O)NCC2 [drawing 2693]
1250	Nc1nc(F)c(-c2ccc(N3CCCCC3)cc2)cc1-c1ccc2c(c1)CCNC2=O [drawing 2679]
2000	Nc1nc(F)c(-c2cnn(C3CCOCC3)c2)cc1-c1ccc2c(c1)CCNC2=O [drawing 2675]
69	Nc1ncc(-c2ccc(N3CCCC3)cc2)cc1-c1ccc2c(c1)CCNC2=O [reference compound]
1603	Nc1nc(F)c(-c2ccc(C3CCNCC3)cc2)cc1-c1ccc2c(c1)CCNC2=O [drawing 2673]
769	Nc1nc(F)c(-c2ccc(N3CCCC3)cc2)cc1-c1ccc2c(c1)CCNC2=O [drawing 2677]

Same assay, conditions: read-out: Lck IC50 nM Range*

IC50 [nM]	SMILES
> 1000	Nc1nc(F)c(-c2ccc(N3CCOCC3)cc2)cc1-c1ccc2c(c1)CCNC2=O [I-16, 6-(2-amino-6-fluoro-5-(4-morpholinophenyl)pyridin-3-yl)-3,4-dihydroisoquinolin-1(2H)-one]

These compounds were tested against T1, Recombinant (1-346) HPK1 (h) (Homo sapiens, UniProt Q92918) (assay: HPK1 Human STE Kinase Enzymatic Radiometric Assay). Details: read-out: HPK1 IC50 nM Range*.
T1 construct: Recombinant (1-346) HPK1 (h) is incubated with 8 mM MOPS pH 7.0
T1 sequence (Q92918 1-346): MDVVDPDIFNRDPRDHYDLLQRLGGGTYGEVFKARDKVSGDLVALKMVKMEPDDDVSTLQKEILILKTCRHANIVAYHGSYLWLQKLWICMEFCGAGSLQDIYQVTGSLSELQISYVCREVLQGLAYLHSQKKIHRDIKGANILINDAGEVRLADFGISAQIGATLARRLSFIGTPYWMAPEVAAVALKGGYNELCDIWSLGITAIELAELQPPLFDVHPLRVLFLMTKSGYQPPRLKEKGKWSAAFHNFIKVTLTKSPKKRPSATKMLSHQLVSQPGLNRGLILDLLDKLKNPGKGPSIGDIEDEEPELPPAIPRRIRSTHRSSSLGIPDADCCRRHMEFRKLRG
Assay type: biochemical
Method: A stock solution of 10 mM of test compound is prepared in DMSO. The compound plate was prepared by 3-fold and 9-point serial dilutions. […] The reaction is initiated by The addition of the Mg/ATP mix. After incubation for 40 minutes at RT, the reaction is stopped by the addition of phosphoric acid to a concentration of 0.5%.

IC50 [nM]	SMILES
0.1 to 10	CN(C)Cc1cc(-c2cc(-c3cc4c(F)c[nH]c(=O)c4cc3F)c(N)nc2F)ccc1C1CCOCC1 [I-562, 6-(2-amino-5-(3-((dimethylamino)methyl)-4-(tetrahydro-2H-pyran-4-yl)phenyl)-6-fluoropyridin-3-yl)-4,7-difluoroisoquinolin-1(2H)-one]
0.1 to 10	CN(C)Cc1nc(-c2cc(-c3ccc4c(c3)CCNC4=O)c(N)nc2F)ccc1C1CCOCC1 [I-600, 6-(6′-amino-6-((dimethylamino)methyl)-2′-fluoro-5-(tetrahydro-2H-pyran-4-yl)-[2,3′-bipyridin]-5′-yl)-3,4-dihydroisoquinolin-1(2H)-one]
11 to 100	C[C@@H]1CN(c2ccc(-c3cc(-c4cc5c(cc4F)C(=O)NCC5)c(N)nc3F)cc2CN(C)C)C[C@H](C)O1 [I-597, 6-(2-amino-5-(3-((dimethylamino)methyl)-4-((2R,6S)-2,6-dimethylmorpholino)phenyl)-6-fluoropyridin-3-yl)-7-fluoro-3,4-dihydroisoquinolin-1(2H)-one]
0.1 to 10	Nc1nc(F)c(-c2ccc(N3CCN(CCCC(F)F)CC3)cc2)cc1-c1ccc2c(c1)CCNC2=O [I-641, 6-(2-amino-5-(4-(4-(4,4-difluorobutyl)piperazin-1-yl)phenyl)-6-fluoropyridin-3-yl)-3,4-dihydroisoquinolin-1(2H)-one]
0.1 to 10	COCCN(C)Cc1nc(-c2cc(-c3ccc4c(c3)CCNC4=O)c(N)nc2F)ccc1N1CCOCC1 [I-582, 6-(6′-amino-2′-fluoro-6-(((2-methoxyethyl)(methyl)amino)methyl)-5-morpholino-[2,3′-bipyridin]-5′-yl)-3,4-dihydroisoquinolin-1(2H)-one]
101 to 1000	Cc1c[nH]c(=O)c2ccc(-c3cc(-c4cccc(CN(C)C)c4)c(F)nc3N)cc12 [I-627, 6-(2-amino-5-(3-((dimethylamino)methyl)phenyl)-6-fluoropyridin-3-yl)-4-methylisoquinolin-1(2H)-one]
11 to 100	CN(C)Cc1cccc(-c2cc(-c3ccc4c(c3)CCNC4=O)c(N)nc2F)c1 [I-594, 6-(2-amino-5-(3-((dimethylamino)methyl)phenyl)-6-fluoropyridin-3-yl)-3,4-dihydroisoquinolin-1(2H)-one]
0.1 to 10	Nc1nc(F)c(-c2ccc(C3CCOCC3)c(CN3CCC3)n2)cc1-c1ccc2c(c1)CCNC2=O [I-605, 6-(6′-amino-6-(azetidin-1-ylmethyl)-2′-fluoro-5-(tetrahydro-2H-pyran-4-yl)-[2,3′-bipyridin]-5′-yl)-3,4-dihydroisoquinolin-1(2H)-one]
0.1 to 10	CO[C@H]1CCN(Cc2cc(-c3cc(-c4ccc5c(c4)CCNC5=O)c(N)nc3F)ccc2N2CCOCC2)C1 [I-565, (S)-6-(2-amino-6-fluoro-5-(3-((3-methoxypyrrolidin-1-yl)methyl)-4-morpholinophenyl)pyridin-3-yl)-3,4-dihydroisoquinolin-1(2H)-one]

The next lines start with the compound.

SMILES	IC50 [nM]
Cc1[nH]c(=O)c2c(F)cc(-c3cc(-c4ccc(N5CCOCC5)c(CN(C)C)c4)c(F)nc3N)cc2c1F [I-534, 6-(2-amino-5-(3-((dimethylamino)methyl)-4-morpholinophenyl)-6-fluoropyridin-3-yl)-4,8-difluoro-3-methylisoquinolin-1(2H)-one]	11 to 100
Nc1nc(F)c(-c2ccc(C3=CCOCC3)cc2C=O)cc1-c1cc2c(cc1F)C(=O)NCC2 [I-514, 2-(6-amino-2-fluoro-5-(7-fluoro-1-oxo-1,2,3,4-tetrahydroisoquinolin-6-yl)pyridin-3-yl)-5-(3,6-dihydro-2H-pyran-4-yl)benzaldehyde]	101 to 1000
Cc1c[nH]c(=O)c2ccc(-c3cc(-c4ccc(N5CCOCC5)c(CN(C)C)c4)c(F)nc3N)cc12 [I-502, 6-(2-amino-5-(3-((dimethylamino)methyl)-4-morpholinophenyl)-6-fluoropyridin-3-yl)-4-methylisoquinolin-1(2H)-one]	0.1 to 10
COc1c[nH]c(=O)c2ccc(-c3cc(-c4ccc(N5CCN(C(C)C)CC5)cc4)c(F)nc3N)cc12 [I-537]	0.1 to 10
COC1CN(Cc2cc(-c3cc(-c4cc5c(cc4F)C(=O)NCC5)c(N)nc3F)ccc2N2CCOCC2)C1 [I-523, 6-(2-amino-6-fluoro-5-(3-((3-methoxyazetidin-1-yl)methyl)-4-morpholinophenyl)pyridin-3-yl)-7-fluoro-3,4-dihydroisoquinolin-1(2H)-one]	11 to 100
CNc1nc2cc(-c3cc(-c4ccc(N5CCN(C(C)C)CC5)cc4)c(F)nc3N)ccc2c(=O)[nH]1 [I-421, 7-(2-amino-6-fluoro-5-(4-(4-isopropylpiperazin-1-yl)phenyl)pyridin-3-yl)-2-(methylamino)quinazolin-4(3H)-one]	11 to 100
Nc1nc(F)c(-c2ccc(C3CCOCC3)cc2C2CNC(=O)C2)cc1-c1cc2c(cc1F)C(=O)NCC2 (stereo not drawn) [I-479, 6-(2-amino-6-fluoro-5-(2-(5-oxopyrrolidin-3-yl)-4-(tetrahydro-2H-pyran-4-yl)phenyl)pyridin-3-yl)-7-fluoro-3,4-dihydroisoquinolin-1(2H)-one]	> 1000
CN(C)Cc1cc(-c2cc(-c3cc4c(cc3F)C(=O)NCC4)c(N)nc2F)ccc1N1CCN(C2CCC2)CC1 [I-462, 6-(2-amino-5-(4-(4-cyclobutylpiperazin-1-yl)-3-((dimethylamino)methyl)phenyl)-6-fluoropyridin-3-yl)-7-fluoro-3,4-dihydroisoquinolin-1(2H)-one]	0.1 to 10
Nc1nc(F)c(-c2ccc(N3CCOCC3)c(CN3CCC3)c2)cc1-c1ccc2c(c1)CCNC2=O [I-549, 6-(2-amino-5-(3-(azetidin-1-ylmethyl)-4-morpholinophenyl)-6-fluoropyridin-3-yl)-3,4-dihydroisoquinolin-1(2H)-one]	11 to 100
Cc1[nH]c(=O)c2ccc(-c3cc(-c4ccc(N5CCN(C(C)C)CC5)cc4)c(F)nc3N)cc2c1Cl [I-538, 6-(2-amino-6-fluoro-5-(4-(4-isopropylpiperazin-1-yl)phenyl)pyridin-3-yl)-4-chloro-3-methylisoquinolin-1(2H)-one]	0.1 to 10
CN(C)Cc1cc(-c2cc(-c3cc4c(cc3F)C(=O)NCC4)c(N)nc2F)ccc1N1CCSCC1 [I-488, 6-(2-amino-5-(3-((dimethylamino)methyl)-4-thiomorpholinophenyl)-6-fluoropyridin-3-yl)-7-fluoro-3,4-dihydroisoquinolin-1(2H)-one]	0.1 to 10
CC(C)N1CCN(c2ccc(-c3cc(-c4ccc5c(=O)[nH]c(N(C)C)nc5c4)c(N)nc3F)cc2)CC1 [I-420, 7-(2-amino-6-fluoro-5-(4-(4-isopropylpiperazin-1-yl)phenyl)pyridin-3-yl)-2-(dimethylamino)quinazolin-4(3H)-one]	101 to 1000
Cc1c[nH]c(=O)c2ccc(-c3cc(-c4ccc(N5CCN(C6CCC6)CC5)cc4)c(F)nc3N)cc12 [I-545, 6-(2-amino-5-(4-(4-cyclobutylpiperazin-1-yl)phenyl)-6-fluoropyridin-3-yl)-4-methylisoquinolin-1(2H)-one]	0.1 to 10
Nc1nc(F)c(-c2ccc([C@]34C[C@H]3CN(C3CCC3)C4)cc2)cc1-c1ccc2c(=O)[nH]cc(F)c2c1 [I-520, 6-(2-amino-5-(4-((1S,5R)-3-cyclobutyl-3-azabicyclo[3.1.0]hexan-1-yl)phenyl)-6-fluoropyridin-3-yl)-4-fluoroisoquinolin-1(2H)-one]	0.1 to 10
